Patent publication US11613768B2, “Microbial production of 2-phenylethanol from renewable substrates” (Arizona Board of Regents on behalf of Arizona State …, priority 2017, dated 2023)

How the values were obtained:
E. coli NST74 = experiment: Assaying 2PE toxicity: growth challenge with exogenous 2PE; assay type: cell-based, Escherichia coli
Procedure: Error bars reported at one standard deviation from triplicate experiments.
The effects of 2PE on E. coli growth rate and yield was determined by monitoring the impacts of its exogenous addition at increasing final concentrations on growing cultures. Approximately 1 ml of an E. coli NST74 seed culture was used to inoculate 50 ml of LB broth in a 250 mL shake flask. When cultures reached OD600˜0.6, 2PE was added to the flasks at an array of final concentrations ranging from 0 to 2 g/L. Culturing then resumed for an additional 6 h with periodic monitoring of OD600.
To assess if 2PE production in these initial strains was perhaps limited by end-product inhibition, a growth challenge study was performed determine to the response of E. coli growth to the addition of exogenous 2PE at a range of increasing final concentrations (FIG. 4).

E. coli = details: prior report, Kang et al., 2014; cited from earlier work
ARO10 = target: T1, ARO10 (Saccharomyces cerevisiae, UniProt Q06408); details: ARO10 (PPDC), substrate phenylpyruvate; cited from earlier work
T1 sequence (Q06408 1-635): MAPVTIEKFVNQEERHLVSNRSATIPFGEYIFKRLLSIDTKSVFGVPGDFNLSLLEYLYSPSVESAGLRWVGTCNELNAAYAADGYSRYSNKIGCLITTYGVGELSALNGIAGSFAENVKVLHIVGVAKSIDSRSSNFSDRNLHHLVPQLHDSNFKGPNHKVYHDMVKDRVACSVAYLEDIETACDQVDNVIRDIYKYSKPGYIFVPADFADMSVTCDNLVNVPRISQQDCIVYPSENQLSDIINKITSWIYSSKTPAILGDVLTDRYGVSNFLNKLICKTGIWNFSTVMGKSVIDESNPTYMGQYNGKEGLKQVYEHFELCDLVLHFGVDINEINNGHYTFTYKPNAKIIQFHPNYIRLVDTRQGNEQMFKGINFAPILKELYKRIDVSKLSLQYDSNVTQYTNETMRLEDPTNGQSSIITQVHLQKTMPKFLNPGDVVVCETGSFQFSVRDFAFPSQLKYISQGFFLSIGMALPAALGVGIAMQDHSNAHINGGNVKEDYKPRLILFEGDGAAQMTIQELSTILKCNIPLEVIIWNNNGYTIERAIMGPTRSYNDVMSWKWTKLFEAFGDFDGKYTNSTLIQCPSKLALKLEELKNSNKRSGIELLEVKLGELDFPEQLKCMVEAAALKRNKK

TyrB = TyrB (Escherichia coli, UniProt P04693); details: TyrB (Phe aminotransferase), substrate phenylpyruvate; cited from earlier work
[1] = exogenous 2PE added at OD600~0.6, LB broth, 6 h monitoring of OD600

Sequence of TyrB (P04693 whole entry): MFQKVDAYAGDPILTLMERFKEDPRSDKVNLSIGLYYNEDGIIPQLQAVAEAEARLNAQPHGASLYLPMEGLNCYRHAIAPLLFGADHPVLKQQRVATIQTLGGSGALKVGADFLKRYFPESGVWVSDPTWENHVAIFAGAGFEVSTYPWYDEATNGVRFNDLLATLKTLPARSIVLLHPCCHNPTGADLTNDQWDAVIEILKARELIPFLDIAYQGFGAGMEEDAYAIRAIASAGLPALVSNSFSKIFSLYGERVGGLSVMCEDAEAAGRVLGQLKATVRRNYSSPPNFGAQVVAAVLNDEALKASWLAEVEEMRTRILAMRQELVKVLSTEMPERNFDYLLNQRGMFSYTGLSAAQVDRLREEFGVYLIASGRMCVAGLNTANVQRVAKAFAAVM

Compound | toxicity threshold (E. coli NST74; E. coli growth) | 2PE concentration at which growth rate and yield were reduced (E. coli NST74; [1]) | 2PE concentration at which severe growth inhibition occurred (E. coli NST74; [1]) | level reported to inhibit E. coli (E. coli) | Km (ARO10) | Km (TyrB)
OCCc1ccccc1 [2PE, 2-phenylethanol] | ~2 g/L | 1 g/L | about 2 g/L | ~1000 µg/mL | – | –
O=C(O)C(=O)Cc1ccccc1 [phenylpyruvate] | – | – | – | – | 100 µM | 12 µM
